In test [1] the target is T1, recombinantly expressed His-tagged protein corresponding to amino acids 575-869 of human Tyk2 (Homo sapiens, UniProt P29597).
T1 construct: made in house
Put plainly: Probe displacement assay (scintillation proximity, radiolabeled probe). The settings on record: 2.5 nM Tyk2 (575-869), 40 nM [3H] probe, 30 minutes at room temperature. In kind it is binding. As to the method: The preparation of radiolabeled probe, (R)—N-(1-(3-(8-methyl-5-(methylamino)-8H-imidazo[4,5-d]thiazolo[5,4-b]pyridin-2-yl)phenyl)ethyl)-2-([^3H]methylsulfonyl)benzamide, was performed as described below: […]
(Scintillation proximity formats need no separation of bound from free tracer.)

The test system of test [2] is Kit225 T cells with STAT-dependent luciferase reporter stimulated with human recombinant IL-23. The test can be described thus: Kit225 T cell assay, IL-23 stimulated STAT-dependent luciferase reporter. In kind it is cell-based. As to the method:
(§1) Kit225 T cells with a stably-integrated STAT-dependent luciferase reporter were plated in RPMI (Gibco) containing 10% heat-inactivated FBS (Gibco) and 100 U/mL PenStrep (Gibco). The cells were then stimulated with either 20 ng/mL human recombinant IL-23 or 200 U/mL human recombinant IFNα (PBL InterferonSource) for 5-6 hours. Luciferase expression was measured using the STEADY-GLO® Luciferase Assay System (Promega) according to the manufacturer's instructions.
(Reporter assays use an easily measured gene product as a stand-in for the process of interest.)

Test [3] has as its system Kit225 T cells with STAT-dependent luciferase reporter stimulated with human recombinant IFNα. Put plainly: Kit225 T cell assay, IFNα stimulated STAT-dependent luciferase reporter. In kind it is cell-based. How it is done: as §1
The mark [4] stands for this setting: KIT225, 20 ng/mL human recombinant IL-23, 5-6 hours, luciferase, read-out: IL-23 Kit225 Reporter, LE (IC50).
Where [5] appears, read: KIT225, 200 U/mL human recombinant IFNα, 5-6 hours, luciferase, read-out: IFNa Kit225 Reporter, LE (IC50).

20 compounds from patent US9987266B2, “Alkyl-amide-substituted pyridyl compounds useful as modulators of IL-12, IL-23 and/or IFNα responses” (BRISTOL-MYERS SQUIBB COMPANY, priority 2013, dated 2018) can be followed below.

Read-outs that look alike come from different tables or passages of the source.

What is called EC50 is the concentration giving half of the maximal effect. A word on the IC50: it is the midpoint of a concentration-inhibition curve.

T1 sequence (P29597 with tags, fused parts or gaps): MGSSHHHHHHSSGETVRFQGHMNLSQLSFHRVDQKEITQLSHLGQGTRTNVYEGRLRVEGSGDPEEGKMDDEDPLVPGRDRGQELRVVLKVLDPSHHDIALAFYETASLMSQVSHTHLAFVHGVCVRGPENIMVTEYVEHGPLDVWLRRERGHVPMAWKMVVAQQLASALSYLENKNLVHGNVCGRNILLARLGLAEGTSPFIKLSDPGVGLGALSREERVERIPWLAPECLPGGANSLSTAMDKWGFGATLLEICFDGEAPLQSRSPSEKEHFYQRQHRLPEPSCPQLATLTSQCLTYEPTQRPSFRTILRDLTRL

Regarding `CNC(=O)c1cnc(NC(=O)C2CC2)cc1Nc1ccccc1S(C)(=O)=O` [Example 1], the 50% effective concentration (EC50) in test [1] was 20 nM. The IC50 in test [2] (setting [4]) worked out at 0.3 µM; in test [3] (setting [5]) it was 0.24 µM.
Turning to `CNC(=O)c1cnc(NC(C)=O)cc1Nc1ccccc1S(C)(=O)=O` [Example 2], the concentration for a half-maximal effect (EC50) in test [1] stood at 430 nM. For the same compound, the values for the concentration for half-maximal inhibition (IC50) in test [2] (setting [4]) and in test [3] (setting [5]) were 7.06 µM and 12.5 µM, respectively.
The matching figures for `CNC(=O)c1cnc(NC(=O)[C@@H]2CCCO2)cc1Nc1ccccc1S(C)(=O)=O` [Example 3]: 830 nM, 6.52 µM and 12.5 µM.
The matching figures for `CNC(=O)c1cnc(NC(=O)C2CCOCC2)cc1Nc1ccccc1S(C)(=O)=O` [Example 4]: 760 nM, 2.09 µM and 12.5 µM.
The matching figures for `CNC(=O)c1cnc(NC(=O)C2CCCCC2)cc1Nc1ccccc1S(C)(=O)=O` [Example 5]: 800 nM, 1.88 µM and 8.93 µM.
Consider `CNC(=O)c1cnc(NC(=O)Cc2ccccc2)cc1Nc1ccccc1S(C)(=O)=O` [Example 6], for which, in test [1], the EC50 was determined as 120 nM. In addition, the IC50 in test [2] (setting [4]) is 1.16 µM; in test [3] (setting [5]), 1.11 µM.
The matching figures for `CNC(=O)c1cnc(NC(=O)C(C)C)cc1Nc1ccccc1S(C)(=O)=O` [Example 7]: 460 nM, 0.4 µM and 4.21 µM.
The matching figures for `CNC(=O)c1cnc(NC(=O)[C@H]2CC2(C)C)cc1Nc1ccccc1S(C)(=O)=O` [Example 8]: 250 nM, 4.68 µM and 1 µM.
Regarding `CNC(=O)c1cnc(NC(=O)C2CCCc3ccccc32)cc1Nc1ccccc1S(C)(=O)=O` (stereo not shown) [Example 9], the 50% effective concentration (EC50) in test [1] is 940 nM. In addition, the IC50 in test [2] (Homo sapiens, KIT225, read-out: IL-23 Kit225 Reporter, LE (IC50, μM)) was found to be 13.3 µM; in test [3] (Homo sapiens, KIT225, read-out: IFNa Kit225 Reporter, LE (IC50, μM)) it was 2.56 µM.
Turning to `CNC(=O)c1cnc(NC(=O)Cc2ccccn2)cc1Nc1ccccc1S(C)(=O)=O` [Example 10], in test [1], the half-maximal effective concentration (EC50) came out at 380 nM. For the same compound, the half-inhibitory concentration (IC50) in test [2] (setting [4]) was found to be 4.55 µM; in test [3] (setting [5]) it was 6.03 µM.
Consider `CCCC(=O)Nc1cc(Nc2ccccc2S(C)(=O)=O)c(C(=O)NC)cn1` [Example 11], for which the EC50 in test [1] was 240 nM. Besides, the IC50 was 2.95 µM in test [2] (setting [4]) and 2.49 µM in test [3] (setting [5]).
The matching figures for `CNC(=O)c1cnc(NC(=O)Cc2ccc(OC)cc2)cc1Nc1ccccc1S(C)(=O)=O` [Example 12]: 230 nM, 4.42 µM and 0.58 µM.
The matching figures for `CNC(=O)c1cnc(NC(=O)C2CCC2)cc1Nc1ccccc1S(C)(=O)=O` [Example 14]: 170 nM, 3.15 µM and 0.87 µM.
The matching figures for `CNC(=O)c1cnc(NC(=O)C2CC2)cc1Nc1ccc(F)cc1S(C)(=O)=O` [Example 15]: 50 nM, 0.69 µM and 0.34 µM.
Turning to `CCNC(=O)Nc1cc(Nc2ccccc2S(C)(=O)=O)c(C(=O)NC)cn1` [Example 16], the EC50 in test [1] was 90 nM. The values for the half-inhibitory concentration (IC50) in test [2] (setting [4]) and in test [3] (setting [5]) were 12.5 µM and 3.37 µM, respectively.
The matching figures for `CNC(=O)Nc1cc(Nc2ccccc2S(C)(=O)=O)c(C(=O)NC)cn1` [Example 17]: 200 nM, 11.4 µM and 9.54 µM.
In the case of `CNC(=O)c1cnc(NC(=O)C2CC2)cc1Nc1cccc(F)c1S(C)(=O)=O` [Example 18], in test [1], the concentration giving a half-maximal response (EC50) amounted to 540 nM. The half-inhibitory concentration (IC50) worked out at 6.61 µM in test [2] (setting [4]) and 9.91 µM in test [3] (setting [5]).
Consider `CNC(=O)c1cnc(NC(=O)C2CC2)cc1Nc1ccccc1C(C)(C)O` [Example 19], for which the EC50 in test [1] amounted to 720 nM. Further, the 50% inhibitory concentration (IC50) came to 5.69 µM in test [2] (setting [4]) and 8.51 µM in test [3] (setting [5]).
Take `[2H]C([2H])([2H])NC(=O)c1cnc(NC(=O)C2CC2)cc1Nc1cccc(-c2nnn(C)n2)c1OC` [Example 44]: the IC50 is 0.00229 µM in test [2] (setting [4]) and 0.00117 µM in test [3] (setting [5]).
The matching figures for `[2H]C([2H])([2H])NC(=O)c1cnc(NC(=O)C2CC2)cc1Nc1cccc(-c2ncc(F)cn2)c1OC` [Example 46]: 0.022 µM and 0.013 µM.
